Experimental findings from publication PMC9722750, “Antibacterial and β-amyloid precursor protein-cleaving enzyme 1 inhibitory polyketides from the fungus Aspergillus chevalieri” (Frontiers in Microbiology, 2022) are described below.

The subject of data set [1] is Pseudomonas aeruginosa ATCC27853. Nature of the data set: Antibacterial assay. It is filed as cell-based. The note with it: for inhibition at 200 µM: Pseudomonas aeruginosa, ATCC27853, read-out: Inhibition rate against Pseudomonas aeruginosa. As to the method:
(§1) In this study, the tested bacteria strains, Escherichia coli ATCC25922, Staphylococcus aureus subsp. aureus ATCC29213, Salmonella enterica subsp. enterica ATCC14028, Pseudomonas aeruginosa ATCC27853, methicillin-resistant S. aureus (MRSA) were purchased from China General Microbiological Culture Collection Center (CGMCC). All the strains were cultured in Mueller-Hinton broth (Oxoid, Thermo Fisher Scientific) at 37°C with shaking at 200 rpm overnight. Each culture was diluted 40-fold in fresh MHB broth and incubated at 37°C with shaking (200 rpm) for another 2–3 h. The mid-log phase cultures were diluted to a concentration of 5 × 10^5 CFU/mL by McFarland Standards, which was used as seeding solution for following antibacterial assays. Each well of the compound-containing 96-well plates was seeded with 100 μL of aforementioned seeding solution, giving a final compound concentration 200 μM. Plates were covered and incubated at 37°C for 24 h. The inhibitory rates were calculated by [(1-OD625sample)/OD625negative control] × 100%. Penicillin G sodium and ceftazidime were used as positive controls (inhibitory rates >99%) ([Zhao Z.-Z. et al., 2018]). Compounds were first tested for their potential against five bacterial strains at a single concentration of 200 μM. If the inhibitory rate above 50%, different concentrations of the compounds were further evaluated for the antibacterial ability.

For data set [2], the system named is Escherichia coli ATCC25922. The experiment in a line: Antibacterial assay. It is filed as cell-based. As for the experimental part: as §1
The test system of data set [3] is Salmonella enterica subsp. enterica ATCC14028. Nature of the data set: Antibacterial assay. In kind it is cell-based. The note with it: for inhibition at 200 µM: Salmonella enterica, ATCC14028, 24 h, read-out: Inhibition rate against Salmonella enterica subsp. enterica. As to the method:
as §1

Data set [4] concerns Staphylococcus aureus subsp. aureus ATCC29213. The experiment in a line: Antibacterial assay. It is filed as cell-based. The settings on record: 200 μM, 24 h. As for the experimental part: as §1
Data set [5] deals with methicillin-resistant S. aureus (MRSA). Nature of the data set: Antibacterial assay. It is filed as cell-based, Staphylococcus aureus. The settings on record: for inhibition at 200 µM: read-out: Inhibition rate against Methicillin-resistant Staphylococcus aureus. As to the method:
as §1

The target of data set [6] is β-amyloid precursor protein-cleaving enzyme 1 (β-secretase, BACE1) (Homo sapiens, UniProt P56817). The experiment in a line: BACE1 FRET assay. It is filed as biochemical. The note with it: 3 h at room temperature, read-out: IC50 BACE1 inhibition. As for the experimental part: β-amyloid precursor protein-cleaving enzyme 1 (β-secretase, BACE1) assays were performed according to the literature ([Qi et al., 2018]; [Yatsu et al., 2019]). First, 10 μL of the test sample, 10 μL of the 722 nM BACE1 substrate (Rh-[…]-Quencher in 50 mM ammonium bicarbonate), and 10 μL of the BACE1 enzyme (1 U/mL) were mixed in black 384-well plates and incubated for 3 h at room temperature. The fluorescence intensity was measured at 540 nm excitation and 590 nm emission using a microplate reader (Tecan Spark 10M, TECAN, Männedorf, Switzerland) at the time points of 1 h and 3 h. The BACE1 inhibition rate was calculated by the following equation: BACE1 inhibition rate (%) = {1–[(S–S0)–(B–B0)/(C–C0)–(B–B0)]} × 100, where C is the fluorescence of a DMSO control (enzyme, substrate, and assay buffer with DMSO) after 3 h of incubation, C0 is the fluorescence of the DMSO control at 1 h after incubation, B is the fluorescence of a non-enzyme control (substrate and assay buffer with DMSO) after 3 h of incubation, B0 is the fluorescence of the non-enzyme control at 1 h after incubation, S is the fluorescence of the tested samples (enzyme, sample solution, and substrate) after 3 h of incubation, and S0 is the fluorescence of the tested samples at 1 h after incubation. The IC50 values were calculated by GraphPad Prism software (v5.02, CA, USA).

A short description of another data set: in vitro. The settings on record: human. In kind it is cell-based.
The mark [7] stands for this setting: Staphylococcus aureus, MRSA, 200 μM, 24 h.

≈ marks a conversion by molar mass, not a printed value. Counter-ions that a name gives are not always drawn. Some results are limits rather than exact numbers.

The term IC50 denotes the concentration needed to halve the response being measured. In general, inhibition refers to how much of the control response was suppressed. As usually defined, the MIC50 is the lowest concentration that inhibits either 50% of growth or 50% of the strains tested, depending on the study. In general, MIC refers to the lowest concentration that inhibits growth of the organism.

Chain of β-amyloid precursor protein-cleaving enzyme 1 (β-secretase, BACE1) (P56817 22-501 limits assumed): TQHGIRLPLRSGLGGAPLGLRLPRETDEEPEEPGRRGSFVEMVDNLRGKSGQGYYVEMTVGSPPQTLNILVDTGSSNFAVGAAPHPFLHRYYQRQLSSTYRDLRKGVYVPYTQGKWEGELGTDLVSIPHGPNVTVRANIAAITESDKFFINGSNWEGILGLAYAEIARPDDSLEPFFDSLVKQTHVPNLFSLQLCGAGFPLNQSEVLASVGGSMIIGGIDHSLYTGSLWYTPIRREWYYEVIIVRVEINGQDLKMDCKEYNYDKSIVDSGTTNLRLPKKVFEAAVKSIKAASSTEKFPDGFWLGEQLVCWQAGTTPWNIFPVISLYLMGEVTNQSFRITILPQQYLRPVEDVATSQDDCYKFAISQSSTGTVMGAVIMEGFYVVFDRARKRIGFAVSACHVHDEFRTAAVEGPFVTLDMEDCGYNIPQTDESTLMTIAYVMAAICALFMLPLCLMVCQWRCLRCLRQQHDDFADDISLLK
Experimental for in vitro: The human lung cancer cell line A549 used in this study was purchased from Conservation Genetics CAS Kunming Cell Bank. The cells were cultured in high-glucose DMEM with 10% fetal bovine serum, 100 mg/mL streptomycin, 100 U/mL penicillin, and kept in an incubator at 37°C under an atmosphere of 5% CO2. The cell viability was assessed by 3-(4,5-dimethylthiazol-2-yl)-2,5-diphenyltetrazolium bromide (MTT) method. […] In brief, 100 μL of adherent cells was seeded to each well of a 96-well cell culture plate. The plate was kept for 12 h for adherence. […] However, suspended cells were seeded with the same density of 1 × 10^5 cells/mL every 100 μL of culture medium before adding the test compounds. Then the plate was incubated for another 48 h. After 48 h of incubation, 100 μg of MTT was added to each well, another 4 h of incubation was continued at 37°C. After removal of 100-μL culture medium, the cells were lysed with 20% SDS-50% DMF (100 μL). The remained lysates were subjected to measure the optical density value at 595 nm with a 96-well microtiter plate reader (Tecan Spark 10M, Switzerland). […] All the experiments were in triplicates. The IC50 value was calculated by a published method ([Chen et al., 2018]).

Take “1,4,5-trihydroxy-7-methoxy-2-methyl-anthraquinone [Compound 14]”: in data set [1] (200 μM, 24 h), the “Inhibition rate against Pseudomonas aeruginosa” value was 38.2%. Besides, in data set [2] (200 μM, 24 h), the “Inhibition rate against Escherichia coli” value is “– (This symbol “–” represent no activity)”. Moreover, in data set [3] (200 μM, 24 h), the “Inhibition rate against Salmonella enterica subsp. enterica” value is “– (This symbol “–” represent no activity)”. Besides, in data set [4], the “Inhibition rate against Staphylococcus aureus subsp. aureus” value is “– (This symbol “–” represent no activity)”. The “Inhibition rate against Methicillin-resistant Staphylococcus aureus” value in data set [5] (200 μM, 24 h) worked out at 52.0%.

In the case of `CCCCCC1Cc2c(cc(CC=C(C)C)c(O)c2C(=O)O)O1` (racemic) [Compound 1, (±)-Chevalieric acid], the IC50 in data set [6] is 101 µM.

On to `CC(C)(O/N=C(\C(=O)N[C@@H]1C(=O)N2C(C(=O)[O-])=C(C[n+]3ccccc3)CS[C@H]12)c1csc(N)n1)C(=O)O` [Ceftazidime, ceftazidime, reference compound], for which the inhibition at 200 µM in data set [2] (Escherichia coli, ATCC25922, 24 h, read-out: Inhibition rate against Escherichia coli) came out at 99.8%; in data set [3] it was 99.3%.

With `COc1cc(O)cc2c1C(=O)c1c(O)cc(C)cc1[C@@H]2[C@@H](C)CC(C)=O` [Compound 2, (10S,12S)-Chevalierone], the inhibition at 200 µM in data set [1] (200 μM, 24 h) was 38.2%.

For `COc1cc(O)cc2c1C(=O)c1c(O)cc(C)cc1[C@@H]2[C@H](C)CC(C)=O` [Compound 3, (10S,12R)-Chevalierone], in data set [1], the “antibacterial activity against P. aeruginosa (in words)” value was “significant antibacterial activities”. In addition, the inhibition at 200 µM in data set [1] (200 μM, 24 h) was 81.9%; in data set [5] (setting [7]) it was 74.1%. The “antibacterial activity against MRSA (in words)” value in data set [5] is given as “significant antibacterial activities”.

Regarding `COc1cc(O)cc2c1C(=O)c1c(O)cc(C)cc1[C@H]2[C@H](C)CC(C)=O` [Compound 4, (10R,12R)-Chevalierone], the “antibacterial activity against P. aeruginosa (in words)” value in data set [1] is “significant antibacterial activities”. Moreover, the inhibition at 200 µM stood at 81% in data set [1] (200 μM, 24 h) and 85% in data set [5] (setting [7]). For the same molecule, the “antibacterial activity against MRSA (in words)” value in data set [5] is “significant antibacterial activities”.

Consider `COc1cc(O)cc2c1C(=O)c1c(O)cc(C)cc1[C@H]2[C@@H](C)CC(C)=O` [Compound 5, (10R,12S)-Chevalierone], for which the “antibacterial activity against P. aeruginosa (in words)” value in data set [1] was “significant antibacterial activities”. For the same molecule, the inhibition at 200 µM in data set [1] (200 μM, 24 h) was 91.5%; in data set [5] (setting [7]) it was 88.5%. In data set [5], the “antibacterial activity against MRSA (in words)” value is on record as “significant antibacterial activities”. Besides, the MIC50 in data set [5] (Staphylococcus aureus, MRSA, read-out: MIC50 against MRSA) is 44 µM (≈ 15.6 µg/mL).

On to `CCCCCCCc1c(O)cc2c(c1C=O)OC(C)(C)C=C2` [Compound 6, asperglaucin B], for which, in data set [6], the IC50 is more than 100 µM. The MIC in data set [5] (Staphylococcus aureus, MRSA, read-out: MIC against MRSA) came to 44 µM (≈ 13.3 µg/mL).

As for `CCC/C=C/c1cc2c(C=O)c(O)c(CC=C(C)C)cc2o1` [Compound 7, 2-(2′,3-epoxy-1′,3′-heptadienyl)-6-hydroxy-5-(3-methyl-2-butenyl)benzaldehyde], the IC50 in data set [6] was more than 100 µM.

`CCCCC/C=C/c1c(O)cc(CC=C(C)C)c(O)c1C=O` [Compound 8, tetrahydroauroglaucin]: in data set [6], the IC50 is 36.1 µM.

For the molecule `CCC/C=C/C=C/c1c(O)cc(CC=C(C)C)c(O)c1C=O` [Compound 9, dihydroauroglaucin], the IC50 in data set [6] was more than 100 µM.

For `CCCCCCCc1c(O)cc(CC=C(C)C)c(O)c1C=O` [Compound 10, flavoglaucin], in data set [6], the IC50 came to 40.9 µM. It took 39.7 µM to reach half-maximal inhibition in the data set “in vitro” (IC50 at 48 h).

Take `C/C=C/C=C/CCc1c(O)cc(CC=C(C)C)c(O)c1C=O` [Compound 11, isodihydroauroglaucin]: in data set [6], the IC50 came to 34.9 µM.

On to `CC(C)=CCc1cc2oc(=O)ccc2c(C=O)c1O` [Compound 12, cristaldehyde A], for which the half-inhibitory concentration (IC50) in data set [6] is more than 100 µM.

With `CCC[C@@H](O)[C@@H]1C=Cc2c(cc(CC=C(C)C)c(O)c2C=O)O1` [Compound 13, (3′S,4′R)-6-(3′,5-epoxy-4′-hydroxy-1′-heptenyl)-2-hyd roxy-3-(3″-methyl-2″-butenyl)benzaldehyde], the half-inhibitory concentration (IC50) in data set [6] is more than 100 µM.

As for `COc1cc(O)c2c(c1)C(=O)c1cc(C)cc(O)c1C2=O` [Compound 15, physcion], the inhibition at 200 µM in data set [1] (200 μM, 24 h) is 38%.

For `CC1(C)S[C@@H]2[C@H](NC(=O)Cc3ccccc3)C(=O)N2[C@H]1C(=O)O` [Penicillin G sodium, Penicillin G sodium salt, reference compound], the inhibition at 200 µM amounted to 99.9% in data set [1] (200 μM, 24 h); 75.7% in data set [3]; 60.5% in data set [5] (setting [7]).
